Assay results taken from patent publication US9795695B2, “Process for the preparation of gadobenate dimeglumine complex in a solid form” (BRACCO IMAGING S.p.A., priority 2009, dated 2017).

Assay: dissolution of the solid form in water
Type: physicochemical
Details: for time for dissolution in water: room temperature

With `CNC[C@H](O)[C@@H](O)[C@H](O)[C@H](O)CO.CNC[C@H](O)[C@@H](O)[C@H](O)[C@H](O)CO.O=C([O-])CN(CCN(CC(=O)[O-])CC(=O)O)CCN(CC(=O)O)C(COCc1ccccc1)C(=O)[O-].[Gd+3]` (stereo not shown) [gadobenate dimeglumine] as the compound, how does the “water required to dissolve 1 g of product” value (per 1 g of product, room temperature (20° C. to 30° C.)) read?
Its value is “less than 1 mL”.

What about the “time for dissolution in water” value of the same compound?
The value was “few seconds”.

And the “time for dissolution in water” value (listed as powdered gadobenate)?
Its value is “less than one minute”.

For `CNC[C@H](O)[C@@H](O)[C@H](O)[C@H](O)CO.CNC[C@H](O)[C@@H](O)[C@H](O)[C@H](O)CO.O=C([O-])CN(CCN(CC(=O)[O-])CC(=O)O)CCN(CC(=O)O)C(COCc1ccccc1)C(=O)[O-].[Gd+3]` (stereo not shown) [Comparative Example 2a, gadobenate dimeglumine], which “ease of dissolution (in words)” value (aqueous solution) is on record?
Its value is “difficult to collect and, in case, to re-dissolve”.
